Consider seven compounds from PMC7508162 (Frontiers in Pharmacology, 2020).

Broadly, the Km is the concentration of substrate that gives half-maximal velocity. Broadly, the Ki is the equilibrium dissociation constant of an inhibitor or competing ligand from its target.

The structures appear in SMILES notation. Read-outs that look alike come from different tables or passages of the source.

Test [1] has as its target T1, human CD39 (Homo sapiens, UniProt P49961).
T1 sequence (P49961 1-510): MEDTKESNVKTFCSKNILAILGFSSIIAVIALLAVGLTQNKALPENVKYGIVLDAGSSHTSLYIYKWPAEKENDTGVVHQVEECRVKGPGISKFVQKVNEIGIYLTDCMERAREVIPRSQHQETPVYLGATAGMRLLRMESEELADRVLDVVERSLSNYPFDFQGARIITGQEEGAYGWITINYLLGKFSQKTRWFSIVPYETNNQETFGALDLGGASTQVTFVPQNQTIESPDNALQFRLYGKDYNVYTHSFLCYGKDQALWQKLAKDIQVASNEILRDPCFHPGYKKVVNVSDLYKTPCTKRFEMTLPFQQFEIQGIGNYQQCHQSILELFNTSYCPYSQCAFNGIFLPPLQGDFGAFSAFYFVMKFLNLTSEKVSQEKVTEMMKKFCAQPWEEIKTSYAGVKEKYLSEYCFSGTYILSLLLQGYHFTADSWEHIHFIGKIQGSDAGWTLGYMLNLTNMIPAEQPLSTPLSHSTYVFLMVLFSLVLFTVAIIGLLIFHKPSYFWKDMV
The settings on record: read-out: Km (CD39); substrate ATP; ref Kukulski et al., 2005; cited from earlier work.

In the next test the target is T2, NTPDase2 (Homo sapiens, UniProt Q9Y5L3).
T2 sequence (Q9Y5L3 1-495): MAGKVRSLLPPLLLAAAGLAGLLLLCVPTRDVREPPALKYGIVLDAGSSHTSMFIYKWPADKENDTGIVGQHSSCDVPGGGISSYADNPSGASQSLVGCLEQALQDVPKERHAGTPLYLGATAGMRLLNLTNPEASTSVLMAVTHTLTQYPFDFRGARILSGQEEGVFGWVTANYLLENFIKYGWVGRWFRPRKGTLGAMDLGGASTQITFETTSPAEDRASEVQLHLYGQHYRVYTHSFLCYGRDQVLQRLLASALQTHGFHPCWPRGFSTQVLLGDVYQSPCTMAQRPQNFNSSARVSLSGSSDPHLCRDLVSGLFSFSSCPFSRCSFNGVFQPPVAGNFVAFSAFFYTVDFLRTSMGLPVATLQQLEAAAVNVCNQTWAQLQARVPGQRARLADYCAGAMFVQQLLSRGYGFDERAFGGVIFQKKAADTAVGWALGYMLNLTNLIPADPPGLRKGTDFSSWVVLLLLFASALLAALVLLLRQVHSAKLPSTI
To be noted: read-out: Km (NTPDase2); substrate ATP; ref Kukulski et al., 2005; cited from earlier work.

For the next test, the target named is T3, NTPDase3 (Homo sapiens, UniProt O75355).
T3 sequence (O75355 1-529): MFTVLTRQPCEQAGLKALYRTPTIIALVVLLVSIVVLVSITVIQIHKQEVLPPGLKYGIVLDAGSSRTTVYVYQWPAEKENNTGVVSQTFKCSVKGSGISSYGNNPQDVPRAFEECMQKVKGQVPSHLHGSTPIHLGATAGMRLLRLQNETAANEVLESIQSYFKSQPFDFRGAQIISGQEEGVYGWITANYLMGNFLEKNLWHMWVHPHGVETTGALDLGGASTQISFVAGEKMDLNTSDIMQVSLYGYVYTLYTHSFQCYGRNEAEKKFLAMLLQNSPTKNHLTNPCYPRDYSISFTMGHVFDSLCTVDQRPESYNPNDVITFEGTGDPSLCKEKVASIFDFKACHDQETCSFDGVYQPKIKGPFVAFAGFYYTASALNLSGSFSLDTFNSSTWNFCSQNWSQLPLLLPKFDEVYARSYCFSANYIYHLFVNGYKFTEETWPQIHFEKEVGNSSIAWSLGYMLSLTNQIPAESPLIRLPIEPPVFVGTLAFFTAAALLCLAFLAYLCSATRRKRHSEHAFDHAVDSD
To be noted: read-out: Km (NTPDase3); substrate ATP; ref Kukulski et al., 2005; cited from earlier work.

The target in the next test is T4, NTPDase8 (Homo sapiens, UniProt Q5MY95).
T4 sequence (Q5MY95 1-495): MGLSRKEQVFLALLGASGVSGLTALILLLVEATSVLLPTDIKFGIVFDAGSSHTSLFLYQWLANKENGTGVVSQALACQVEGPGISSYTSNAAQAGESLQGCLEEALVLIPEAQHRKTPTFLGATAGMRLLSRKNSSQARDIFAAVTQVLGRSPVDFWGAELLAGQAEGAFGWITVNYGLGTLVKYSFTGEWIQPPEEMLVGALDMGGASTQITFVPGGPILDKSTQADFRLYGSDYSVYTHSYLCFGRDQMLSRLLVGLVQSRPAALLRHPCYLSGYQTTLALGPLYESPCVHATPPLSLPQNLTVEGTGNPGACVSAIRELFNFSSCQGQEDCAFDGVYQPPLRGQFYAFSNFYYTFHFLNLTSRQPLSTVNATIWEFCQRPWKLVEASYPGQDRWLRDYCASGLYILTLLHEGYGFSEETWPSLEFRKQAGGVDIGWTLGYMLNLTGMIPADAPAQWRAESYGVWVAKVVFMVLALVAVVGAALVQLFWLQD
To be noted: read-out: Km (NTPDase8); substrate ATP; ref Kukulski et al., 2005; cited from earlier work.

For test [2], the target named is T1, human CD39. Kind of test: Fluorescence capillary electrophoresis assay for CD39. Format: biochemical. The settings on record: for Ki: fluorescent substrate PSB-017621A 0.5 µM, human umbilical cord membrane preparation, n = 3, Cheng-Prusoff, read-out: Ki ± SEM. Set-up: Human umbilical cord membrane preparations (250 ng) natively expressing high amounts of CD39; from tissue; host or cells: human umbilical cord membranes. The procedure:
(§1) They were minced and homogenized with a polytron in 95 mM NaCl, 0.1 mM phenylmethylsulfonyl fluoride (PMSF), and 45 mM Tris solution, pH 7.6. […] The pellets were resuspended in 5 mM Tris buffer solution, pH 8.0 and 10% glycerol. All purification steps were performed at 4°C. The preparations were kept at −80°C.
For inhibition screening, three independent experiments were performed. […] The reaction buffer contained 10 mM HEPES, 2 mM CaCl2, 1 mM MgCl2, pH 7.4. The samples were incubated at 37°C for 4 min, and the enzymatic reaction was terminated by heating at 90°C for 5 min. The solution was then diluted 1:20 with reaction buffer to perform separation of nucleotides by capillary electrophoresis (CE) followed by laser-induced fluorescence (LIF) detection. […] Three independent experiments were performed, and curves were calculated by GraphPad Prism 8 software (GraphPad software, San Diego, CA, USA).
Analysis was carried out using a P/ACE MDQ capillary electrophoresis system (Beckman Instruments, Fullerton, CA, USA). The separation was performed in a polyacrylamide-coated capillary [30 cm (10 cm effective length) × 50 µm (id), × 360 µm (od)]. Before each run, the capillary was rinsed with the background electrolyte [50 mM phosphate buffer (pH 6.5)] for 1 min at 30 psi. Samples were electrokinetically injected by applying a voltage of -6 kV for 30 s at the capillary outlet, and the fluorescent nucleotide derivatives were separated by voltage application of -15 kV. […] Data collection and peak area analysis were performed by the P/ACE MDQ software 32 KARAT obtained from Beckman Coulter (Fullerton, CA, USA).

The target in test [3] is T1, human CD39. Kind of test: Malachite green assay for CD39 (natural substrate ATP). The test is classed as biochemical. Set-up: Human umbilical cord membrane preparations (250 ng) natively expressing high amounts of CD39; from tissue; host or cells: human umbilical cord membranes. To be noted: natural substrate ATP 50 µM, n = 3, read-out: Ki ± SEM (converted). The procedure:
as §1
The reaction buffer contained 10 mM HEPES, 2 mM CaCl2, 1 mM MgCl2, pH 7.4 in a final volume of 50 μl in transparent 96-well half area plates. For CD39 (NTPDase1), we made use of human umbilical cord membranes preparations which express high levels of the enzyme. For the other human NTPDase isoenzymes, we had to resort to recombinant expression. […] The amount of enzyme preparation was adjusted to ensure 10–20% of substrate conversion. […] The released (inorganic) phosphate was quantified after 20 min of gentle shaking at 25°C by measuring the absorption of the malachite green-phosphomolybdate complex at 600 nm using a BMG PheraStar FS plate reader (BMG Labtech GmbH, Ortenberg, Germany).
% Inhibition=(B−T)/B*100%
where B is the average corrected absorption of the positive control without inhibitor and T the corrected absorption in the presence of test compound.
Full concentration-inhibition curves were determined with inhibitor concentrations ranging from 0.1 to 300 µM in the presence of 2% DMSO. Three independent experiments were performed (n = 3) and curves were calculated by the GraphPad Prism 8 software. The Ki value was calculated using the Cheng-Prusoff equation for competitive inhibitors: […]

The next test has as its target rat CD39. More on the design: method as in Baqi et al., 2009. The settings on record: Figure 2, ref Baqi et al., 2009, read-out: Ki (reported potency); cited from earlier work.
Test [4] concerns the target T1, human CD39. Set-up: Human umbilical cord membrane preparations (250 ng) natively expressing high amounts of CD39; from tissue; host or cells: human umbilical cord membranes; method as in Lee et al., 2018. To be noted: fluorescent substrate of CD39; ref Lee et al., 2018; cited from earlier work.
For test [5], the target named is T1, human CD39. Set-up: Human umbilical cord membrane preparations (250 ng) natively expressing high amounts of CD39; from tissue; host or cells: human umbilical cord membranes. To be noted: Figure 2, ref Crack et al., 1995, Müller et al., 2006, Lévesque et al., 2007, Baqi et al., 2009, Lecka et al., 2013, Lee et al., 2015, Kanwal et al., 2019, read-out: Ki (reported potency); cited from earlier work.

Turning to `Nc1ncnc2c1ncn2[C@@H]1O[C@H](COP(=O)(O)OP(=O)(O)OP(=O)(O)O)[C@@H](O)[C@H]1O` [ATP], the Michaelis-Menten constant (Km) was 17 µM at human CD39 [1], 70 µM at NTPDase2, 75 µM on NTPDase3 and 46 µM on NTPDase8.
With `CCCCSc1nc2c(N(CC)CC)ncnc2n1[C@@H]1O[C@H](COP(=O)(O)OP(=O)(O)C(Br)(Br)P(=O)(O)O)[C@@H](O)[C@H]1O` [Compound 37, (Dibromo((((((2R,3S,4R,5R)-5-(8-(butylthio)-6-(diethylamino)-9H-purin-9-yl)-3,4-dihydroxy-tetrahydrofuran-2-yl)methoxy)(hydroxy)phosphoryl)oxy)-(hydroxy)phosphoryl)methyl)phosphonic Acid], the Ki on human CD39 [2] is 7.48 ± 1.29 µM; at human CD39 [3] it was 5.98 µM.
With `Nc1ncnc2c1ncn2[C@@H]1O[C@H](COP(=O)(O)OP(=O)(O)C(F)(F)P(=O)(O)O)[C@@H](O)[C@H]1O` [Compound 40, (((((((2R,3S,4R,5R)-5-(6-Amino-9H-purin-9-yl)-3,4-dihydroxytetrahydrofuran-2-yl)methoxy)-(hydroxy)-phosphoryl)oxy)(hydroxy)phosphoryl)difluoromethyl)-phosphonic Acid], the inhibition constant Ki on human CD39 [2] is 10.6 ± 0.4 µM; on human CD39 [3], 4.55 µM. In addition, the “IC50 (in words)” value at human CD39 [2] (human CD39) was “low micromolar range”. Also, the “fold less potent than dibromo-derivative 38 at CD39” value at human CD39 [2] (ratio of Ki values, fluorescence CE assay) is reported as “about 2 fold”.
For `Nc1ncnc2c1ncn2[C@@H]1O[C@H](COP(=O)(O)CP(=O)(O)OP(=O)(O)O)[C@@H](O)[C@H]1O` [Compound 41, α,β-Methylene-ATP, reference compound], the Ki was 0.632 ± 0.024 µM at human CD39 [2] and 7.2 µM on human CD39 [3].
Regarding `Nc1c(S(=O)(=O)O)cc(Nc2ccc3ccccc3c2)c2c1C(=O)c1ccccc1C2=O` [III, 1-Amino-2-sulfo-4-(2-naphthylamino)-anthraquinone], on rat CD39, the Ki was 0.33 µM.
As for `O=C(NCCCCCCNc1ncnc2c1ncn2[C@@H]1O[C@H](COP(=O)(O)OP(=O)(O)OP(=O)(O)O)[C@@H](O)[C@H]1O)c1ccc2c(c1)C(=O)OC21c2ccc(O)cc2Oc2cc(O)ccc21` [PSB-017621A, N^6-[6-(Fluoresceinyl-5′-carboxamido)hexyl]-ATP], the Km at human CD39 [4] was 19.6 µM.
Turning to `Oc1c(Cl)cc(Cl)cc1/C=N/CCc1c[nH]c2ccccc12` [Tryptamine derivative (V)], the inhibitory constant (Ki) on human CD39 [5] was 0.021 µM.
